The results in this text go back to ChEMBL document CHEMBL3297676, “Maximizing diversity from a kinase screen: identification of novel and selective pan-Trk inhibitors for chronic pain” (J Med Chem, 2014).

In data set [1] the target is T1, High affinity nerve growth factor receptor (Homo sapiens, UniProt P04629).
Target sequence in this assay (P04629 whole entry): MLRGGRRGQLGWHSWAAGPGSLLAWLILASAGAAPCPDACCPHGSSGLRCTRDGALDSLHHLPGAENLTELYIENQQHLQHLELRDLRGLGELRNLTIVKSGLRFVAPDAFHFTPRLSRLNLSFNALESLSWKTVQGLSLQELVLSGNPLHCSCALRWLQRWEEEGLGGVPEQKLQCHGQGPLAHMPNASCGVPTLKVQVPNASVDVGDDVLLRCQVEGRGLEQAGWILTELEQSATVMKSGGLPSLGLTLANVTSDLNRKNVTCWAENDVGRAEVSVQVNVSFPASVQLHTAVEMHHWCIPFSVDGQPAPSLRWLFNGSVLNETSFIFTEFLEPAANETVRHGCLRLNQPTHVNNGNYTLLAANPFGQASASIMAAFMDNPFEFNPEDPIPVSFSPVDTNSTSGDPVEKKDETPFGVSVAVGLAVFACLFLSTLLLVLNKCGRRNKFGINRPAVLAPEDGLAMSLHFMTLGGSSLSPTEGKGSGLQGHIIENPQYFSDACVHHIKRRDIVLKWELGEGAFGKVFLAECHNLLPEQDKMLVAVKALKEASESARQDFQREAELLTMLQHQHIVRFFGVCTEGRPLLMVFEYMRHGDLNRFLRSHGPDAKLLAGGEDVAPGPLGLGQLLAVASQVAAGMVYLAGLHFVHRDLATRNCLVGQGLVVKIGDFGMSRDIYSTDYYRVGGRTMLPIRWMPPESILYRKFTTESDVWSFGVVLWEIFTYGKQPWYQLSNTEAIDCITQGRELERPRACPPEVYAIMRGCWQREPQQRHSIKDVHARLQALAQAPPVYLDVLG
Description: Inhibition of phsophorylated TrkA (unknown origin) assessed as inhibition of fluorescently-labelled substrate phosphorylation by CALIPER enzymatic assay
Data set [2] concerns the target T1, High affinity nerve growth factor receptor. The source holds these as a separate data set.
Target sequence in this assay (P04629 whole entry): as above
Description: Inhibition of human TrkA expressed in human U2OS cells assessed as inhibition of NGF-induced maximum response after 1 hr by beta-galactosidase assay
Data set [3] shares this target. This is another data set of the same source.
Target sequence in this assay (P04629 whole entry): as above
Description: Binding affinity to His-tagged TrkA (unknown origin) after 1 hr by SPR method
Data set [4] shares this target. The source holds these as a separate data set.
Target sequence in this assay (P04629 33-796 limits assumed): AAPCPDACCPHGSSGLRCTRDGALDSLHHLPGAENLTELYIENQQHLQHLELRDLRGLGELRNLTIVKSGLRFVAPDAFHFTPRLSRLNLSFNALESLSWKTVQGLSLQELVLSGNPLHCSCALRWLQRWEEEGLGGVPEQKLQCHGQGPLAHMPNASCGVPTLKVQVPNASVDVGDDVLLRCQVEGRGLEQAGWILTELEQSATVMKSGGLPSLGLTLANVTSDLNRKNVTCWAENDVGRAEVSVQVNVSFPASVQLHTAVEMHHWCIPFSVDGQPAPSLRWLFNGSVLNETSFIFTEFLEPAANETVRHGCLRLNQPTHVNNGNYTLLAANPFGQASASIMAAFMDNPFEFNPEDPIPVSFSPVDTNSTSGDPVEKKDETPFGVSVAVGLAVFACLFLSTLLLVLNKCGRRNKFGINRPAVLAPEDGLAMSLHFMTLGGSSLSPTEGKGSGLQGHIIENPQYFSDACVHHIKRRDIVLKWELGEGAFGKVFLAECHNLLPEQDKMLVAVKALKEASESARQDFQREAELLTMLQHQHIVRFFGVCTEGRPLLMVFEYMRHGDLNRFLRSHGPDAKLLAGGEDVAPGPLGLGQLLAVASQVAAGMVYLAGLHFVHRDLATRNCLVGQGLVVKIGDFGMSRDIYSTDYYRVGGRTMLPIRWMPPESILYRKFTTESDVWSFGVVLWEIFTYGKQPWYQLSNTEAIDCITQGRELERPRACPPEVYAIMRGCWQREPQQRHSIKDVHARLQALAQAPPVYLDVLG
Description: Binding affinity to His-tagged TrkA (unknown origin) assessed as half life after 1 hr by SPR method
Data set [5] has as its system Rattus norvegicus. As to the kind of experiment: Analgesic activity in po dosed Sprague-Dawley rat Chung spinal nerve ligation model assessed as reversal of mechanical hypersensitivity relative to control. Type of data set: functional, organism-based.
Data set [6] has as its target T1, High affinity nerve growth factor receptor. As to the kind of experiment: Inhibition of purified TrkA cytoplasmic domain (unknown origin) by HTRF assay. In general terms: Time-resolved FRET reads energy transfer from a long-lived donor to a nearby acceptor.
Target sequence in this assay (P04629 whole entry): as the sequence (P04629 whole entry) above
Data set [7] has as its system Rattus norvegicus. Briefly: Antiinflammatory activity in Complete-Freunds adjuvant-induced Sprague-Dawley rat pain model assessed as reversal of mechanical hypersensitivity at 30 mg/kg, po bid for 7 days. Format: functional, organism-based. On the set-up: dose 30 mg/kg.
The nature of data set [8]: Clearance in rat. Type of data set: ADME, organism-based. The note with it: in vivo.
Data set [9] is described as follows: Half life in rat. Type of data set: ADME, organism-based. The note with it: in vivo.
Data set [10] in a line: Oral bioavailability in rat. Format: ADME, organism-based. As to conditions: in vivo.
Data set [11] in a line: Plasma protein binding in rat. Format: ADME, cell-free. The note with it: read-out: PPB (converted).
Data set [12] has as its system Rattus norvegicus. Briefly: Antiinflammatory activity in Complete-Freunds adjuvant-induced Sprague-Dawley rat pain model assessed as reversal of mechanical hypersensitivity at 100 mg/kg, po bid for 7 days. Type of data set: functional, organism-based. Further details: dose 100 mg/kg.
A short description of data set [13]: Plasma concentration in Complete-Freunds adjuvant-induced Sprague-Dawley rat pain model at 10 mg/kg, po after 2 hrs. Type of data set: ADME, organism-based. On the set-up: dose 10 mg/kg, route oral.
Data set [14] can be described thus: Plasma concentration in Complete-Freunds adjuvant-induced Sprague-Dawley rat pain model at 30 mg/kg, po after 2 hrs. Type of data set: ADME, organism-based. Further details: dose 30 mg/kg, route oral.
The nature of data set [15]: Plasma concentration in Complete-Freunds adjuvant-induced Sprague-Dawley rat pain model at 100 mg/kg, po after 2 hrs. Type of data set: ADME, organism-based. On the set-up: dose 100 mg/kg, route oral.
Data set [16] deals with Plasma. Briefly: Fraction unbound in plasma of Complete-Freunds adjuvant-induced Sprague-Dawley rat pain model at 10 mg/kg, po after 2 hrs. Type of data set: ADME, organism-based. On the set-up: dose 10 mg/kg, route oral. As to conditions: in vivo.
Data set [17] has as its system Plasma. Briefly: Fraction unbound in plasma of Complete-Freunds adjuvant-induced Sprague-Dawley rat pain model at 30 mg/kg, po after 2 hrs. Type of data set: ADME, organism-based. On the set-up: dose 30 mg/kg, route oral. As to conditions: in vivo.
The test system of data set [18] is Plasma. Briefly: Fraction unbound in plasma of Complete-Freunds adjuvant-induced Sprague-Dawley rat pain model at 100 mg/kg, po after 2 hrs. Format: ADME, organism-based. On the set-up: dose 100 mg/kg, route oral. As to conditions: in vivo.
A short description of data set [19]: Ratio of fraction unbound in plasma of Complete-Freunds adjuvant-induced Sprague-Dawley rat pain model at 10 mg/kg, po after 2 hrs to IC50 for human TrkA expressed in human U2OS cells. Format: ADME, organism-based. Further details: dose 10 mg/kg, route oral. The note with it: in vivo.
A short description of data set [20]: Ratio of fraction unbound in plasma of Complete-Freunds adjuvant-induced Sprague-Dawley rat pain model at 30 mg/kg, po after 2 hrs to IC50 for human TrkA expressed in human U2OS cells. Format: ADME, organism-based. On the set-up: dose 30 mg/kg, route oral. The note with it: in vivo.
The nature of data set [21]: Ratio of fraction unbound in plasma of Complete-Freunds adjuvant-induced Sprague-Dawley rat pain model at 100 mg/kg, po after 2 hrs to IC50 for human TrkA expressed in human U2OS cells. Type of data set: ADME, organism-based. The note with it: in vivo. On the set-up: dose 100 mg/kg, route oral.
The subject of data set [22] is Rattus norvegicus. As to the kind of experiment: Analgesic activity in Sprague-Dawley rat Chung spinal nerve ligation model assessed as reversal of mechanical hypersensitivity at 30 mg/kg, po relative to control. Type of data set: functional.
Data set [23] concerns Plasma. As to the kind of experiment: Plasma concentration in Sprague-Dawley rat Chung spinal nerve ligation model assessed as reversal of mechanical hypersensitivity at 10 mg/kg, po. Format: ADME, organism-based. Further details: dose 10 mg/kg, route oral. As to conditions: in vivo.
In data set [24] the test system is Plasma. Briefly: Plasma concentration in Sprague-Dawley rat Chung spinal nerve ligation model assessed as reversal of mechanical hypersensitivity at 30 mg/kg, po. Format: ADME, organism-based. Further details: dose 30 mg/kg, route oral. As to conditions: in vivo.
Data set [25] relates to Plasma. As to the kind of experiment: Plasma concentration in Sprague-Dawley rat Chung spinal nerve ligation model assessed as reversal of mechanical hypersensitivity at 100 mg/kg, po. Type of data set: ADME, organism-based. Further details: dose 100 mg/kg, route oral. As to conditions: in vivo.
The test system of data set [26] is Plasma. Briefly: Fraction unbound in plasma of Sprague-Dawley rat Chung spinal nerve ligation model assessed as reversal of mechanical hypersensitivity at 10 mg/kg, po. As to conditions: in vivo. Type of data set: ADME, organism-based. Further details: dose 10 mg/kg, route oral.
The subject of data set [27] is Plasma. Briefly: Fraction unbound in plasma of Sprague-Dawley rat Chung spinal nerve ligation model assessed as reversal of mechanical hypersensitivity at 30 mg/kg, po. Type of data set: ADME, organism-based. On the set-up: dose 30 mg/kg, route oral. The note with it: in vivo.
Data set [28] deals with Plasma. Briefly: Fraction unbound in plasma of Sprague-Dawley rat Chung spinal nerve ligation model assessed as reversal of mechanical hypersensitivity at 100 mg/kg, po. Type of data set: ADME, organism-based. On the set-up: dose 100 mg/kg, route oral. As to conditions: in vivo.
Data set [29] is described as follows: Ratio of fraction unbound in plasma of Sprague-Dawley rat Chung spinal nerve ligation model assessed as reversal of mechanical hypersensitivity at 10 mg/kg, po to IC50 for human TrkA expressed in human U2OS cells. On the set-up: dose 10 mg/kg, route oral. As to conditions: in vivo. Type of data set: ADME, organism-based.
Data set [30] can be described thus: Ratio of fraction unbound in plasma of Sprague-Dawley rat Chung spinal nerve ligation model assessed as reversal of mechanical hypersensitivity at 30 mg/kg, po to IC50 for human TrkA expressed in human U2OS cells. Format: ADME, organism-based. On the set-up: dose 30 mg/kg, route oral. The note with it: in vivo.
A short description of data set [31]: Ratio of fraction unbound in plasma of Sprague-Dawley rat Chung spinal nerve ligation model assessed as reversal of mechanical hypersensitivity at 100 mg/kg, po to IC50 for human TrkA expressed in human U2OS cells. As to conditions: in vivo. On the set-up: dose 100 mg/kg, route oral. Format: ADME, organism-based.

Active and inactive are the calls of the source. The calls are words filed in the database; no cut-off is given here.

As a reminder, the IC50 is the concentration at which inhibition is half-maximal. Broadly, the Kd is the equilibrium constant for the complex coming apart. A lower Kd goes with a tighter complex. Regarding `CCOc1cccc(-c2nccc3c2cc(C(=O)O)n3CCOc2ccc(Cl)cc2)c1`, the half-inhibitory concentration (IC50) is 653 nM in data set [1] and 200 nM in data set [2]. Also, binding in data set [3] was characterised by a dissociation constant (Kd) of 3.5 nM. The same compound gave a T1/2 in data set [4] of 2.13 h.
As to `O=C(O)c1cc2cnccc2n1CCOc1ccc(OC(F)(F)F)cc1`, the IC50 in data set [1] was determined as 12300 nM; in data set [2], 15800 nM.
As to `CC(C)C[C@H](CN)CC(=O)O`, in the data set on Rattus norvegicus [5], the inhibition entry was “Active”.
For `Cc1cn2cc(CNc3ncnc4ccc(N5CCC[C@@H]5c5cc(F)ccc5F)nc34)nc2s1`, the concentration for half-maximal inhibition (IC50) came out at 1.5 nM in data set [6] and 13 nM in data set [1].
As to `COc1ccc2cc([C@H](C)C(=O)O)ccc2c1`, the inhibition entry in the data set on Rattus norvegicus [7] was “Active”.
As to `CC(C)N(Cc1c[nH]c2ncccc12)C(=O)Nc1ccc(OC(F)(F)F)cc1`, the 50% inhibitory concentration (IC50) in [1] came to 11 nM; in data set [2] it was 3 nM.
In data set [6], `c1cncc(CNc2ccc3ncnc(Nc4ccc(N5CCOCC5)cc4)c3n2)c1` gave a half-maximal inhibitory concentration (IC50) of 997 nM.
As a reminder, the clearance is a measure of how efficiently the substance is removed, as volume per time. By half-life is commonly meant how long it takes for the measured level to halve. Low readings indicate rapid decline, high ones slow decline. What is called bioavailability is dose-corrected exposure relative to a reference, in per cent. Lower therefore signals poor availability. The term inhibition in vivo denotes the share of the control response that was lost under treatment. For the compound `CC(C)(C)c1cc(NC(=O)Cn2cc(-c3ccc(-n4ccnc4)nc3)nn2)n(-c2cccnc2)n1`, the IC50 in [6] came to 9 nM; in data set [2], 7 nM. Also, the inhibition result with Rattus norvegicus [7] and in the data set on Rattus norvegicus [12] was “Active” throughout. Further, the clearance in [8] is 16 mL/min/kg. Further, in data set [9], the half-life is 2.6 h. For the same compound, in [10], the bioavailability stood at 30%. Moreover, the fraction unbound in [11] is 0.005. The concentration at 2 h was found to be 1000 nM in [13], 4000 nM in data set [14] and 16000 nM in data set [15]. Also, the “Cp(f)” value in the data set with Plasma [16] is 5 nM; in the data set on Plasma [17], 20 nM; in the data set with Plasma [18], 80 nM; in the data set on Plasma [26], 5 nM; in the data set on Plasma [27] it was 34 nM; in the data set on Plasma [28], 115 nM. Besides, the Ratio in data set [19] came out at 1; in [20] it was 4; in data set [21] it was 16; in [29], 1; in data set [30], 6; in data set [31] it was 23. The inhibition in vivo at 30 mg/kg in the data set on Rattus norvegicus [22] is 50%. Further, the concentration in the data set on Plasma [23] was 1000 nM; with Plasma [24], 6700 nM; with Plasma [25], 23000 nM. For the same compound, the equilibrium dissociation constant (Kd) in [3] is 0.94 nM. This compound also gave a T1/2 in data set [4] of 1.13 h.
Regarding `CN1CCN(c2ccc(Nc3ncnc4ccc(NCc5cccc(Cl)c5)nc34)cc2)CC1`, the results for the 50% inhibitory concentration (IC50) in [6] and in data set [1] were 11 nM and 1690 nM, respectively. In addition, binding in data set [3] was put at a Kd of 63 nM.
With `CC(C)N(Cc1cccc(-c2nccs2)c1)C(=O)Nc1ccc(OC(F)(F)F)cc1`, the concentration for half-maximal inhibition (IC50) came out at 132 nM in data set [1] and 56 nM in data set [2]. The dissociation constant (Kd) in data set [3] came to 63 nM. The T1/2 in data set [4] was found to be 0.1 h.
On to `O=C(O)c1cc2cc(-c3cc[nH]n3)ccc2n1CCOc1ccc(OC(F)(F)F)cc1`, for which the IC50 stood at 51 nM in data set [1] and 29 nM in [2].
As to `O=C(NCc1cccc(-c2nccs2)c1)Nc1ccc(OC(F)(F)F)cc1`, the concentration for half-maximal inhibition (IC50) in [1] was over 100000 nM.
For `CCOc1cccc(-c2nccc3c2cc(C(=O)O)n3CCOc2ccc(OC(F)(F)F)cc2)c1`, the IC50 in data set [1] was 348 nM; in [2] it was 59 nM.
As for `CCOc1cccc(-c2nccc3c2cc(C(=O)O)n3CCOc2ccccc2)c1`, the values for the IC50 in [1] and in data set [2] were 2070 nM and 109 nM, respectively.
For the compound `N#Cc1ccc2c(c1)cc(C(=O)O)n2CCOc1ccc(OC(F)(F)F)cc1`, the half-maximal inhibitory concentration (IC50) in data set [1] was determined as 118 nM; in data set [2] it was 150 nM.
With `Cc1cn(-c2ccc(-c3cn(CC(=O)Nc4cc(C5CC5)nn4-c4ccccc4)nn3)cc2)cn1`, the results for the 50% inhibitory concentration (IC50) in data set [6] and in data set [2] were 60 nM and 9 nM, respectively.
